System: corneal epithelial layer of rabbit cornea blocks
Experiment: Corneal epithelial migration in rabbit cornea tissue culture (method of Nishida et al.)
Assay type: cell-based, male Japanese white rabbits
Settings: for Corneal Epithelial Migration Rate (%): 24 h, 37.5° C., 5% CO2, control set at 100%; for corneal epithelial migration promoting effect (in words): summary of Table 1, rabbit cornea tissue culture
Protocol: Using cornea specimen s collected from male Japanese white rabbits, the corneal epithelial migration length was used as an index in studying the cornea tissue culturing system according to the method of Nishida, et al. (J. Cell Biol., 97, 1653-1657 (1983)). Cornea blocks (6 specimens for each group) cut from rabbit cornea pieces were cultured in a culture solution (TCM-199) containing an invention compound at 37.5° C. and 5% CO2 for 24 h. After culturing, the cornea blocks were fixed in an ethanol/glacial acetic acid (95:5 by volume) mixture solution, followed by embedding with paraffin to form slices. After removal of the paraffin, the slices were subjected to hematoxylin-eosin staining, and the length of migration of the corneal epithelial layer was observed using a microscope. As a control, culturing was also performed using a culture solution not containing an invention compound.

[1] = compound 100 μM in culture solution (TCM-199)
[2] = compound 10 μM in culture solution (TCM-199)

| Compound | Corneal Epithelial Migration Rate (%) [1] | corneal epithelial migration promoting effect (in words) | Corneal Epithelial Migration Rate (%) [2] |
| --- | --- | --- | --- |
| O=c1ccn([C@@H]2O[C@H](COP(=O)([O-])OP(=O)([O-])OP(=O)([O-])O)[C@@H](O)[C@H]2O)c(=O)[nH]1.[Na+].[Na+].[Na+] [UTP-Na, uridine 5′-triphosphate trisodium] | 123.1% | significant corneal epithelial migration promoting effects |  |
| O=c1ccn([C@@H]2O[C@H](COP(=O)([O-])OP(=O)([O-])OP(=O)([O-])OP(=O)([O-])OC[C@H]3O[C@@H](n4ccc(=O)[nH]c4=O)[C@H](O)[C@@H]3O)[C@@H](O)[C@H]2O)c(=O)[nH]1.[Na+].[Na+].[Na+].[Na+] [DUTP-Na, P^1, P^4-di(uridine-5′)tetraphosphate tetrasodium] | 118.9% | significant corneal epithelial migration promoting effects |  |
| O=c1ccn([C@@H]2O[C@H](COP(=O)([O-])OP(=O)([O-])O)[C@@H](O)[C@H]2O)c(=O)[nH]1.[Na+].[Na+] [UDP-Na, uridine 5′-diphosphate di-sodium] | 115.3% | significant corneal epithelial migration promoting effects |  |
| Nc1ncnc2c1ncn2[C@@H]1O[C@H](COP(=O)([O-])OP(=O)([O-])OP(=O)([O-])O)[C@@H](O)[C@H]1O.[Na+].[Na+].[Na+] [ATP-Na, adenosine 5′-triphosphate trisodium] |  | significant corneal epithelial migration promoting effects | 119.3% |
| Nc1ncnc2c1ncn2[C@@H]1O[C@H](COP(=O)([O-])OP(=O)([O-])O)[C@@H](O)[C@H]1O.[Na+].[Na+] [ADP-Na, adenosine 5′-diphosphate disodium] |  | significant corneal epithelial migration promoting effects | 116.1% |
